From patent US20170143753A1, “SOPHOROLIPID ESTER CHAIN LENGTH DEPENDENCE ON THE INHIBITION OF HUMAN PATHOGENS” (Syntehzyme LLC, priority 2011, published 2017)
In brackets after ≈: the same amount, converted by molar mass. Read-outs that look alike come from different tables or passages of the source.

Columns and labels:
[1] = system: B. Cereus; experiment: Minimum inhibitory concentration (MIC), broth microdilution; assay type: cell-based; conditions: for MIC: Bacillus cereus, read-out: Minimum Inhibitory Concentration (MIC) B. Cereus; for activity against B. Cereus (in words): MIC assay, up to 128 μg/mL
Method: (§1) Sophorolipid ester derivatives, as well as the diacetate lactonic sophorolipid have inhibitory activity against a range of human pathogenic bacteria, which was confirmed by experiments and observations. Sophorolipid samples were dissolved in pure DMSO to a final concentration of 2.56 mg/mL that was used as a stock solution. Except the first row, the wells of a 96-well microplate were loaded with 100 μL of sterilized PBS buffer. The stock solution (20 μL) and sterilized PBS buffer pH 7.4 (180 μL) was added into the first row of the 96-well microplate and serially diluted (2-fold dilution) from 256 μg/mL to 2 μg/mL using PBS buffer. After serial dilution, 100 μL of fresh bacteria cells (10^6 cfu/mL) suspended in Soy broth (SB) or Mueller Hinton broth (MHB) culture medium were added to each well and the plates were incubated for 16 or 30 hours. Wells with only cells in 5% DMSO in PBS/medium (no SL) and with only 5% DMSO in PBS/medium (no SL and no cells) were used as positive and negative controls, respectively. […] Lactonic SL as well as all SL esters except SL hexyl ester (no activity against all strains) and SL pentyl ester (no activity against B. Subtilis) were active against all three gram-positive bacterial strains tested (B. Cereus, B. Subtilis, Listeria innocua). The unexpected result in Table 2 is that, as the chain length of the sophorolipid ester increased from methyl to ethyl, propyl and butyl, the MIC values for B. Cereus, B. Subtilis and L. Innocua decrease. The pentyl ester has similarly low MIC values as the butyl ester derivative for B. Cereus and L. Innocua.

[2] = system: Listeria innocua; experiment: as above; assay type: cell-based; conditions: for MIC: Listeria innocua, read-out: Minimum Inhibitory Concentration (MIC) Listeria Innocua; for activity against Listeria innocua (in words): MIC assay, up to 128 μg/mL
Method: as §1

[3] = system: B. Subtilis; experiment: as above; assay type: cell-based; conditions: for MIC: Bacillus subtilis, read-out: Minimum Inhibitory Concentration (MIC) B. Subtilis; for activity against B. Subtilis (in words): MIC assay, up to 128 μg/mL
Method: as §1

[4] = system: human pathogen bacteria; experiment: Bactericidal activity (time-kill study); assay type: cell-based; conditions: roughly 10^7 cfu/mL in PBS pH 7.4; for cells killed: at 2×MIC and 4×MIC, within 1 hour; for time to reach 3 log reduction: time-kill, 2×MIC and 4×MIC
Method: Bactericidal activity (time-kill study): an in vitro assay was performed to test the bactericidal effect of each sophorolipid derivatives on human pathogen bacteria viability. […] After 15 min, 45 min, 1 h and 3 h incubation, cells were spread on agar plates, incubated at 37° C. for 18 hours and examined for colonies. An untreated cells vial (i.e. no SL added) was used as the control.
To further investigate if the growth inhibition by sophorolipid derivatives is associated with cell death, i.e. if sophorolipid derivatives are bactericidal or bacteriostatic, time-kill studies were performed. […] Moreover, the killing rate was higher for these sophorolipid ester derivatives than natural di-acetylated lactonic sophorolipid that requires almost 2 hours to reach a 3 log reduction.

[5] = prior art statement; cited from earlier work
[6] = Solubility in water / aqueous systems (statement); assay type: physicochemical; conditions: aqueous formulations
[7] = incubation time 16 h, 10^6 cfu/mL, no visible growth
[8] = incubation time 30 h, 10^6 cfu/mL, no visible growth

Compound	cells killed [4]	time to reach 3 log reduction [4]	MIC [1, 7]	MIC [2, 8]	MIC [3, 7]	activity against B. Subtilis (in words) [3]	further results
COC(=O)CCCCCCC/C=C\CCCCCCC(C)OC1OC(CO)C(O)C(O)C1OC1OC(CO)C(O)C(O)C1O (centres unmarked) [SL Methyl ester]	more than 99.9%	≤ 1 hour					MIC ([1]; 16 h): 32 µg/mL (≈ 50.3 µM); MIC ([2]; 30 h): 64 µg/mL (≈ 101 µM); MIC ([3]; 16 h): 32 µg/mL (≈ 50.3 µM)
CC(=O)OCC1OC2OC(C)CCCCCC/C=C\CCCCCCCC(=O)OC3C(COC(C)=O)OC(OC2C(O)C1O)C(O)C3O (centres unmarked) [Lactonic SL, LSL 6′,6″-diacetate, reference compound]		~2 hour	16 µg/mL (≈ 23.2 µM)	32 µg/mL (≈ 46.5 µM)	8 µg/mL (≈ 11.6 µM)	active	activity against B. Cereus (in words) [1]: active; activity against Listeria innocua (in words) [2]: active; solubility in aqueous systems (in words) [5]: very low solubility; water solubility (in words) [6]: low water solubility
CCOC(=O)CCCCCCC/C=C\CCCCCCC(C)OC1OC(CO)C(O)C(O)C1OC1OC(CO)C(O)C(O)C1O (centres unmarked) [SL Ethyl ester]			32 µg/mL (≈ 49.2 µM)	32 µg/mL (≈ 49.2 µM)	32 µg/mL (≈ 49.2 µM)		
CCCCOC(=O)CCCCCCC/C=C\CCCCCCC(C)OC1OC(CO)C(O)C(O)C1OC1OC(CO)C(O)C(O)C1O (centres unmarked) [SL Butyl ester]	more than 99.9%	≤ 1 hour	8 µg/mL (≈ 11.8 µM)	8 µg/mL (≈ 11.8 µM)	8 µg/mL (≈ 11.8 µM)		
SL Pentyl ester						no activity	Minimum Inhibitory Concentration (MIC) B. Cereus [1, 7]: 8 µg/mL; Minimum Inhibitory Concentration (MIC) Listeria Innocua [2, 8]: 8 µg/mL; Minimum Inhibitory Concentration (MIC) B. Subtilis [3, 7]: >128 µg/mL; Minimum Inhibitory Concentration (MIC) B. Subtilis ([3]; incubation time 16 h, 10^6 cfu/mL, no visible growth, listed as pentyl ester): > 128 µg/mL
CCCOC(=O)CCCCCCC/C=C\CCCCCCC(C)OC1OC(CO)C(O)C(O)C1OC1OC(CO)C(O)C(O)C1O (centres unmarked) [SL Propyl ester]	more than 99.9%	≤ 1 hour	16 µg/mL (≈ 24.1 µM)	25 µg/mL (≈ 37.6 µM)	25 µg/mL (≈ 37.6 µM)		
SL Hexyl ester						no activity	activity against B. Cereus (in words) [1]: no activity; Minimum Inhibitory Concentration (MIC) B. Cereus [1, 7]: >128 µg/mL; activity against Listeria innocua (in words) [2]: no activity; Minimum Inhibitory Concentration (MIC) Listeria Innocua [2, 8]: >128 µg/mL; Minimum Inhibitory Concentration (MIC) B. Subtilis [3, 7]: >128 µg/mL
